Assay [1] concerns SK-MEL-5. Set-up: method as in https://dtp.cancer.gov/dtpstandard/dwindex/index.jsp. The following applies: ref https://dtp.cancer.gov/dtpstandard/dwindex/index.jsp; cited from earlier work.
Assay [2] deals with OVCAR-4. Put plainly: NCI anticancer screening (SRB), Ovarian Cancer subpanel. Format: cell-based, human. To be noted: for GI%: 10.0 µM in one dose.
For assay [3], the system named is Bcl-2. Briefly: Apoptotic markers assay, Bcl-2 expression in MCF-7 cells. It is filed as cell-based, human. To be noted: MCF-7 cells treated at IC50 concentrations; vs untreated control = 1. As to the method: (§1) We measured the apoptosis promoter Bax levels, the apoptosis inhibitor Bcl−2, and the apoptosis coordination enzymes caspase-8 and caspase-9 [32].
(§2) The apoptotic marker method was carried out using the reported procedure using MCF-7, the cancer cell line (Supplementary Materials). […]
photomultiplier voltage and for compensation setting adjustment to eliminate spectral overlap between the FL1 and the FL2 signals.
6. Cell cycle analysis
Breast carcinoma (MCF-7) cell was seeded at 2 × 10^5 cells/well density and incubated for 24 h in six-well plates. Foetal bovine serum (10%) was added, and the cells were incubated at 37 °C in an atmosphere of 5% CO2. The medium was replaced with 1% (v/v) DMSO containing 10.0 μM of […]
with 70% ethanol, rinsed with phosphate-buffered saline, and then stained with the DNA fluorochrome propidium iodide (PI) for 15 min at 37 °C. Then, samples were analyzed by flow cytometry using a FACSCalibur (Becton Dickinson). The cell cycle distributions were calculated using CellQuest software (Becton Dickinson).
7. Caspase-8 and 9 activation assay
A breast carcinoma (MCF-7) cell line was obtained from ATCC. […]
allowed cells to grow at 37 °C, stimulated with the compounds to be tested for caspase-8 or caspase-9 and lysed with Cell Extraction Buffer. […]

Assay [4] concerns the target EGFR (Homo sapiens, UniProt P00533). Put plainly: EGFR tyrosine kinase inhibition assay (Kinase-Glo MAX). A general note: Kinase-Glo reads ATP consumption through a luciferase reaction.
For assay [5], the target named is HER2 (Homo sapiens, UniProt P04626). Briefly: HER2 tyrosine kinase inhibition assay (ADP-Glo).
HER2, sequence (P04626 23-1255): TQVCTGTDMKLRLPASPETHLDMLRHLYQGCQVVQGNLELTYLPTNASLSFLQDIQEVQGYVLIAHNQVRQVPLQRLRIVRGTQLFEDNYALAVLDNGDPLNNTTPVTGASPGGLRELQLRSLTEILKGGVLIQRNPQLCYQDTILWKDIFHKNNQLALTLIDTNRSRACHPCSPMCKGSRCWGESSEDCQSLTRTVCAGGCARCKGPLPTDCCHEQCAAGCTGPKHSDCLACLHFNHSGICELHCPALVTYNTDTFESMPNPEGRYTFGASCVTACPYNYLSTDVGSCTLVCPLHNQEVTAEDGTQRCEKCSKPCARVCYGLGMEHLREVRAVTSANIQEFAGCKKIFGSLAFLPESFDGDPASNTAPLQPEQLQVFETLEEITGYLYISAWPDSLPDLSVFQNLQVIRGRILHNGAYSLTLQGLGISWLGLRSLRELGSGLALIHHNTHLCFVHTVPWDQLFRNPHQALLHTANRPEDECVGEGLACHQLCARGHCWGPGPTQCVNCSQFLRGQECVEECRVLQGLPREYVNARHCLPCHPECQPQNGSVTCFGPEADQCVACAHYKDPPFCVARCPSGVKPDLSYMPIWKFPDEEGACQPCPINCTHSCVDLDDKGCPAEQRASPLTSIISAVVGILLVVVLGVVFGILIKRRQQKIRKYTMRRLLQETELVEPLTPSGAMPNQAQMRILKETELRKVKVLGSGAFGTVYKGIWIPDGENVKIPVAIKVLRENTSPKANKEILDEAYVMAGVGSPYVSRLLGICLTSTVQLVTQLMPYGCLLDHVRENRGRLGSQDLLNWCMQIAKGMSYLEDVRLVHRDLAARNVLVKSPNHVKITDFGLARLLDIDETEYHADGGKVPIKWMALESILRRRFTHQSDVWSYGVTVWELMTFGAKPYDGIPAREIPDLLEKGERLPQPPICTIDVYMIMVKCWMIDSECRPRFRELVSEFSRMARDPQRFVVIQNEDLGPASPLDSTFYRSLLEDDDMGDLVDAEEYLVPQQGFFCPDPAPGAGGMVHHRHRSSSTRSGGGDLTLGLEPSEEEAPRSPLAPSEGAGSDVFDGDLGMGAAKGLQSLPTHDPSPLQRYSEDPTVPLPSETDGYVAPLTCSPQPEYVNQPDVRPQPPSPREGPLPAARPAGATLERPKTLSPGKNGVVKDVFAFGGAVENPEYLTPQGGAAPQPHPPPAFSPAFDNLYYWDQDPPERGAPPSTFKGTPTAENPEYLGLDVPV
The subject of assay [6] is BT-549. Briefly: NCI anticancer screening (SRB), Breast Cancer subpanel. It is filed as cell-based, human. To be noted: for GI%: 10.0 µM in one dose.
For assay [7], the system named is T-47D. Described as above. To be noted: for GI%: 10.0 µM in one dose. Format: cell-based, human.
For assay [8], the system named is CAKI-1. Briefly: NCI anticancer screening (SRB), Renal Cancer subpanel. Format: cell-based, human. The following applies: for GI%: 10.0 µM in one dose.
For assay [9], the system named is SN12C. The description is as above. Format: cell-based, human. To be noted: for GI%: 10.0 µM in one dose.
Assay [10] deals with 786-0. The description is as above. Format: cell-based, human. To be noted: for GI%: 10.0 µM in one dose.
Assay [11] relates to MDA-MB-435. Briefly: NCI anticancer screening (SRB), Melanoma subpanel. It is filed as cell-based, human. To be noted: for GI%: 10.0 µM in one dose.
The subject of assay [12] is MDA-MB-231/ATCC. Briefly: NCI anticancer screening (SRB), Breast Cancer subpanel. Format: cell-based, human. To be noted: for GI%: 10.0 µM in one dose.
Assay [13] has as its target T1, COX-2 (Ovis aries, UniProt P79208).
T1 construct: purchased Cayman Chemical 560101
Briefly: biochemical. To be noted: read-out: IC50, COX-2 Inhibition. As to the method: the measured protein at the end of the drug treatment as compared to that at the beginning) indicating a net loss of cells following treatment was calculated from [(Ti − Tz)/Tz] […] = − 50.
Values were calculated for each of these three parameters if the activity level was reached; however, if the effect was not reached or exceeded, that parameter's value was expressed as more or less than the maximum or minimum concentration tested. The log GI50, log TGI, and log LC50 were then determined and defined as the mean of the logs of the individual GI50, TGI, and LC50 values. The lowest values are obtained with the most sensitive cell lines. The compound with […]
2. In vitro cytotoxic activity towards normal fibroblast (WI-38) cells Cell Lines were obtained from the American Type Culture Collection; cells were cultured using DMEM (Invitrogen/Life Technologies) supplemented with 10% FBS (Hyclone), ten ug/ml of insulin (Sigma), and 1% penicillin–streptomycin. Cultures were removed from the incubator into a laminar flow hood, reconstituted with 3 mL of balanced salt solution without phenol red and serum, and then added to an amount equal to 10% of the culture medium volume. […]
medium volume. The absorbance was measured Spectrophotometrically at a wavelength of 570 […]
The ability of the test compounds to inhibit COX-2 was determined using an enzyme immunoassay […]

Assay [14] deals with K-562. Briefly: NCI anticancer screening (SRB), Leukemia subpanel. It is filed as cell-based, human. The following applies: for GI%: 10.0 µM in one dose.
In assay [15] the test system is TK-10. Put plainly: NCI anticancer screening (SRB), Renal Cancer subpanel. Format: cell-based, human. The following applies: for GI%: 10.0 µM in one dose.
Assay [16] relates to A498. The assay is described as above. It is filed as cell-based, human. The following applies: for GI%: 10.0 µM in one dose.
For assay [17], the system named is SK-MEL-2. Briefly: NCI anticancer screening (SRB), Melanoma subpanel. It is filed as cell-based, human. The following applies: for GI%: 10.0 µM in one dose.
The subject of assay [18] is SR. Put plainly: NCI anticancer screening (SRB), Leukemia subpanel. The following applies: for GI%: 10.0 µM in one dose. It is filed as cell-based, human.
The subject of assay [19] is NCI-H23. Put plainly: NCI anticancer screening (SRB), Non-Small Cell Lung Cancer subpanel. It is filed as cell-based, human. The following applies: for GI%: 10.0 µM in one dose.
Assay [20] concerns Bax. Put plainly: Apoptotic markers assay, Bax expression in MCF-7 cells. It is filed as cell-based, human. To be noted: MCF-7 cells treated at IC50 concentrations; vs untreated control = 1. As to the method: as §1, §2
(cells are Plated […]
in a density of 1.2-1.8 X 10,000 cells/well in a volume of 100 µL complete growth medium + 100 µL of the tested compound per well in a 96-well plate for 24/48 h before the enzyme assay).
8. Evaluation of Bax and Bcl-2 expressions m RNA isolation was carried out using an RNeasy extraction kit, up to 1 X 107 cells. They were disrupted in Buffer RLT and homogenized. Ethanol was added to the lysate to promote the selective binding of RNA to the RNeasy membrane. Then, the sample was applied to the RNeasy […]
Mini spin column. Total RNA bound to the membrane. High-quality RNA was eluted using […]
(1 picture or pasted object on this page, not shown here)

Assay [21] has as its system MCF-7. Briefly: NCI anticancer screening (SRB), Breast Cancer subpanel. Format: cell-based, human. To be noted: for GI%: 10.0 µM in one dose.
Assay [22] deals with SF-295. Put plainly: NCI anticancer screening (SRB), CNS Cancer subpanel. Format: cell-based, human. To be noted: for GI%: 10.0 µM in one dose.
Assay [23] deals with HCT-116. Set-up: method as in https://dtp.cancer.gov/dtpstandard/dwindex/index.jsp. The following applies: ref https://dtp.cancer.gov/dtpstandard/dwindex/index.jsp; cited from earlier work.
The mark [24] stands for this setting: Homo sapiens, five concentrations.

The values below come from publication PMC11728000, “Antitumor Activity and Multi-Target Mechanism of Phenolic Schiff Bases Bearing Methanesulfonamide Fragments: Cell Cycle Analysis and a Molecular Modeling Study” (International Journal of Molecular Sciences, 2024).

T1 sequence (P79208 17-603): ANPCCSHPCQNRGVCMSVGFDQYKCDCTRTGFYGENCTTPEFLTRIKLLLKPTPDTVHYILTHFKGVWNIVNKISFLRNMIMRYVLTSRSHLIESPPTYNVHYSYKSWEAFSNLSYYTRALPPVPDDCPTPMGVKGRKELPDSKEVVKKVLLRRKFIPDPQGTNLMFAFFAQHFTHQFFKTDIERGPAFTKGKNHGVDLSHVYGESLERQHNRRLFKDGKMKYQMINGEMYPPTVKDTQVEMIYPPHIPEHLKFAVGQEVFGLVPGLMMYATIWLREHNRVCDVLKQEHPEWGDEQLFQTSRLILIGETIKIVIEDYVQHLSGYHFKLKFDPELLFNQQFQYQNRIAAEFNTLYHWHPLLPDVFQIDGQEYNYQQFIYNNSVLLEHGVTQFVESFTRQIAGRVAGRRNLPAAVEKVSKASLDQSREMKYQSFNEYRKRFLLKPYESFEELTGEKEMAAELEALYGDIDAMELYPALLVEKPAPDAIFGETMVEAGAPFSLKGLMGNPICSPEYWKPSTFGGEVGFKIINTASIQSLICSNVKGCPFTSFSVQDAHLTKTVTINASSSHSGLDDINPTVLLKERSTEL
EGFR, sequence (P00533 25-1210): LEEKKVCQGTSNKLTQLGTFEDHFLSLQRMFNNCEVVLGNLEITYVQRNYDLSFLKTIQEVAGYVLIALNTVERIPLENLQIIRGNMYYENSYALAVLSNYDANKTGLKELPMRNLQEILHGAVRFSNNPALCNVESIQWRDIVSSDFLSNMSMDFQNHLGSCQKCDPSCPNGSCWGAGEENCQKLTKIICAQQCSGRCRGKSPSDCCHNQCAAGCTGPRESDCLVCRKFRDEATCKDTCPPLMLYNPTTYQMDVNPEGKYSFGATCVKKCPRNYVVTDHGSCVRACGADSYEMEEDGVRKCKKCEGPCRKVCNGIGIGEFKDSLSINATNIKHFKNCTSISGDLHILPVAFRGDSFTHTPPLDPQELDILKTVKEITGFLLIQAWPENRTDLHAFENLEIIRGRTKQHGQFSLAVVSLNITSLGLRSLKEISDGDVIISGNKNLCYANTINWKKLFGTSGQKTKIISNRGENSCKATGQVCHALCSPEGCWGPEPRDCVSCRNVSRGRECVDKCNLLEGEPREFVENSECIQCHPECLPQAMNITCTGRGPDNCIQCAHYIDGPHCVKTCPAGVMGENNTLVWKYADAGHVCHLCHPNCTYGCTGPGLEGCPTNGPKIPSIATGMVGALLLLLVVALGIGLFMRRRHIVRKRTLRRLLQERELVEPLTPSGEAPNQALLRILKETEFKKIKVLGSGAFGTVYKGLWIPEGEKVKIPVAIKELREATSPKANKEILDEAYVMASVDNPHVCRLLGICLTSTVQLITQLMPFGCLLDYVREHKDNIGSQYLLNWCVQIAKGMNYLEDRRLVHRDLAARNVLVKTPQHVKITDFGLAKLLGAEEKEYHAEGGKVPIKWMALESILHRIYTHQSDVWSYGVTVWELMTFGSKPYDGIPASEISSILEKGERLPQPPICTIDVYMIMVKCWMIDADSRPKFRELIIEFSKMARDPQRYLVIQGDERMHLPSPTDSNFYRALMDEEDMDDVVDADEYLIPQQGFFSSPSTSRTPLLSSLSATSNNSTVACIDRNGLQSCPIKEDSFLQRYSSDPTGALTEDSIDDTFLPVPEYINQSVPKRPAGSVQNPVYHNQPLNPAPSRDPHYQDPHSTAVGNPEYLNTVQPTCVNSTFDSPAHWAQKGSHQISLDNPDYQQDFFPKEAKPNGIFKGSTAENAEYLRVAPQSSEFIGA

`Cc1ccc(-c2cc(C(F)(F)F)nn2-c2ccc(S(N)(=O)=O)cc2)cc1` [Celecoxib, celecoxib]: the GI50 – broadly, the concentration that inhibits growth by half – in [1] is 15800 nM.
As to `CS(=O)(=O)Nc1ccc(C(=O)NN=Cc2ccccc2O)cc1` [Compound 7], the GI% is on record as 53% in assay [2]; 27% in assay [6]; 18% in assay [7]; 35% in assay [8]; 23% in assay [9]; 25% in assay [10]. The GI% in assay [11] turned out to be 24%; in assay [12], 34%; in assay [14], 26%; in assay [15], 21%; in assay [16], 16%; in [17] it was 22%. For the same compound, the GI% in assay [18] is 67%; in assay [19] it was 27%; in assay [21], 21%; in assay [22], 35%. The “Bcl2, Gene Expression (Fold Change)” value in assay [3] stood at 0.201 fold change. The figures for the IC50 in [4], in assay [5] and in [13] were 752 ± 50 nM, 183 ± 11 nM and 20900 ± 820 nM, respectively. The “Bax, Gene Expression (Fold Change)” value in [20] is 5.02 fold change.
Turning to `CCN(CC)c1ccc(C=NNC(=O)c2ccc(NS(C)(=O)=O)cc2)c(O)c1` [Compound 8], the GI% in assay [2] is reported as 69%; in [6] it was 88%; in [7], 74%; in assay [8] it was 81%; in [9] it was 69%; in [10], 98%. For the same compound, the GI% in assay [11] worked out at 71%; in assay [12], 62%; in assay [14], 86%; in assay [15], 52%; in [16], 81%; in assay [17], 59%. In addition, the GI% in assay [18] was 89%; in assay [19], 77%; in [21], 94%; in assay [22], 90%. The GI50 in [2] (setting [24]) was 388 nM; in assay [6] (setting [24]), 569 nM; in assay [7] (Homo sapiens, T47D, five concentrations), 382 nM; in assay [8] (setting [24]), 464 nM; in assay [9] (setting [24]) it was 603 nM; in [10] (setting [24]), 358 nM. For the same compound, the GI50 in [11] (setting [24]) was determined as 558 nM; in assay [12] (setting [24]) it was 425 nM; in assay [14] (Homo sapiens, K562, five concentrations), 492 nM; in assay [15] (setting [24]), 1050 nM; in [16] (setting [24]), 2230 nM; in [17] (setting [24]), 749 nM. In addition, the GI50 in [18] (setting [24]) was found to be 141 nM; in [19] (setting [24]) it was 1160 nM; in assay [21] (Homo sapiens, MCF7, five concentrations) it was 416 nM; in [22] (setting [24]), 517 nM. The “Bcl2, Gene Expression (Fold Change)” value in [3] stood at 0.232 fold change. Also, the IC50 (commonly the concentration that gives 50% inhibition) was determined as 166 ± 33 nM in assay [4], 464 ± 18 nM in [5] and 12800 ± 510 nM in [13]. Further, in assay [20], the “Bax, Gene Expression (Fold Change)” value was determined as 5.456 fold change.
With `C#Cc1cccc(Nc2ncnc3cc(OCCOC)c(OCCOC)cc23)c1` [Erlotinib, erlotinib], the GI50 in assay [23] is 6310 nM.
As to `COc1cc2ncnc(Nc3ccc(F)c(Cl)c3)c2cc1OCCCN1CCOCC1` [Gefitinib, gefitinib], the GI50 in assay [23] and in [1] was 3160 nM throughout.
